The results in this text go back to article PMC10303920, “Competition between skin antimicrobial peptides and commensal bacteria in type 2 inflammation enables survival of S. aureus” (Cell reports, 2023).

No end group written: not given here.

For assay [1], the system named is S. aureus (ATCC35556). As to the kind of experiment: Survival of S. aureus on mouse skin in inflammation models. Format: in vivo, Balb/c mice. The text has this: All experiments involving live animals were done with the approval of the Institutional Animal Care and Use Guidelines of the University of California, San Diego (Protocol number: S09074). To investigate influences of distinct type of skin inflammation on the microbial community on the skin surface, we employed Th2 and Th17 inflammation models using mixed sex of Il4ra^−/− Balb/c (Jackson Laboratory, ME), Camp^−/− Balb/c,[4] Flg^ft/ft Balb/c or WT Balb/c mice (Jackson Laboratory) (6–8 weeks). Mice were housed under a specific pathogen-free condition with 12hr light/12hr dark cycle at 20–22°C and 30–70% humidity. Mice were randomly selected, the back skin was shaved, treated with depilatory cream, rinsed with water, cleaned with alcohol swab twice. To induce Th2 inflammation, MC903 (50μL of 90μM in ethanol) was applied to the back skin of WT, Il4ra^−/− or Camp^−/− mice every day for 14 days. Control mice received equal volume of ethanol. Alternatively, a sterile patch (2 × 2cm) with OVA solution (100 μg/100 μL PBS) or PBS was placed on tape-stripped dorsal skin of Flg^ft/ft Balb/c mice (6–8 weeks, mixed sex) and covered with Tegaderm wound dressing film for 8 days (the patch was replaced every 2 days). Mice received 3 times of 8-day OVA exposures by 2-week intervals. […] The dorsal skin was disinfected with alcohol swabs twice, applied with a 6-mm TSB agar disc containing 1 × 10^6 CFU of S. aureus (ATCC35556), and covered with Tegaderm wound dressing film for initial 24 h for quantitative bacterial application. […]
Bacteria were cultured in tryptic soy broth (TSB) at 37°C overnight, washed with PBS, and re-suspended in PBS at 1 × 10^6 CFU/5μL. […] The entire dorsal skin was then covered with wound dressing film for quantitative bacterial application and to avoid contamination.[18] […]
Survival of S. aureus and CoNS were measured on Baird-Parker agar for S. aureus or mannitol salt agar with egg yolk for total Staphylococcus species using easySpiral automatic diluter plater with exponential mode or circle mode and automatic colony counter (Interscience Inc., France). […]

In assay [2] the test system is AMP gene expression at wound edge. As to the kind of experiment: AMP response to partial-thickness skin wounds of mice treated by MC903. In kind it is in vivo, Balb/c mice. As to conditions: MC903 or vehicle for 14 days, scratched by 18 gauge needle, biopsy at wound edge after 48 hours; Figure S3. The text has this:
All experiments involving live animals were done with the approval of the Institutional Animal Care and Use Guidelines of the University of California, San Diego (Protocol number: S09074). To investigate influences of distinct type of skin inflammation on the microbial community on the skin surface, we employed Th2 and Th17 inflammation models using mixed sex of Il4ra^−/− Balb/c (Jackson Laboratory, ME), Camp^−/− Balb/c,[4] Flg^ft/ft Balb/c or WT Balb/c mice (Jackson Laboratory) (6–8 weeks). Mice were housed under a specific pathogen-free condition with 12hr light/12hr dark cycle at 20–22°C and 30–70% humidity. Mice were randomly selected, the back skin was shaved, treated with depilatory cream, rinsed with water, cleaned with alcohol swab twice. To induce Th2 inflammation, MC903 (50μL of 90μM in ethanol) was applied to the back skin of WT, Il4ra^−/− or Camp^−/− mice every day for 14 days. […] The dorsal skin was disinfected with alcohol swabs twice, applied with a 6-mm TSB agar disc containing 1 × 10^6 CFU of S. aureus (ATCC35556), and covered with Tegaderm wound dressing film for initial 24 h for quantitative bacterial application. […] The mRNA expression of each gene was evaluated by qPCR and normalized to GAPDH expression (key resources table). page 4: Figure S3. […] P-value (*P<0.05 and **P<0.01) was calculated by two-tailed unpaired parametric t-test. […]

A further assay concerns ShA9-WT and ShA9-ΔLanti. As to the kind of experiment: Growth inhibition of ShA9-WT and ShA9-ΔLanti by human and murine AMPs (OD600). Format: cell-based, Staphylococcus hominis. The note with it: 90% RPMI/10% TSB, 30°C, 24 h, mean of duplicate technical replicates, Figure 4E. The method, then: Staphylococcus strains collected from normal skin from healthy subjects or lesional skin from AD patients were cultured in TSB overnight. Bacteria were washed with PBS and resuspended to 90% RPMI media and 10% TSB. Bacteria (1 × 10^5 CFU/mL) were incu bated with or without human AMPs (LL-37, hBD-2, hBD-3) or mouse cathelin-related AMP (CRAMP) in 90% RPMI media and 10% TSB (100 μL) in each well of a 96-well plate at 30°C for 24 h. Bacterial growth was assessed by measuring OD600. Minimal inhibitory concentration was defined as the lowest concentration which prevent visible bacterial growth (<5% of OD600 value of the con trol well).

In assay [3] the test system is S. aureus (ATCC35556). As to the kind of experiment: Survival of S. aureus on mouse skin after topical steroid. In kind it is in vivo, Balb/c WT mice. The note with it: 0.1% triamcinolone topical at 24 and 32 h after S. aureus, read at 48 h; Figure 2L. The procedure:
(§1) Back skin of Balb/c WT mice (8 weeks, female) were shaved and treated with MC903 as described above. After decontaminating the skin with alcohol swab twice, S. aureus (ATCC35556, 1 × 10^6 CFU) were applied with a TSB agar disc and whole back skin was covered with Tegaderm wound dressing film for 24 h. Tegaderm and the TSB disc were removed, and then 0.1% Triamcinolone (Perrigo) or Vaseline (50μg) were applied twice on back skin at 24 and 32 h after S. aureus were applied. Skin swab and biopsy was ob tained to measure S. aureus survival and immune response of the skin, respectively, at 48 h after bacteria application.
Survival of S. aureus and CoNS were measured on Baird-Parker agar for S. aureus or mannitol salt agar with egg yolk for total Staphylococcus species using easySpiral automatic diluter plater with exponential mode or circle mode and automatic colony counter (Interscience Inc., France). To determine total CoNS survival, CFUs on mannitol salt agar were subtracted by CFUs on Baird-Parker agar. To distinguish ShA9-WT and ShA9-ΔLanti mutant, CoNS colonies with pink color without halo were randomly picked from mannitol salt agar plate and conducted colony PCR with gene specific primers for ShA9-lantibiotic-α (key resources table).

The subject of assay [4] is Il17a, Il4, Il13, Camp, Defb14, Defb4 expression. As to the kind of experiment: qPCR of cytokine and AMP genes in mouse skin after topical steroid. The note with it: topical triamcinolone. In kind it is in vivo, Balb/c WT mice. The procedure:
as §1
To determine expression of mRNA for Il4, Il13, Il17a, Tslp, Defb4, […] or Camp, 6mm punch biopsy was obtained from the mouse back skin. Skin biopsy was stored in 1mL of RNAlater solution at −80°C. Total RNA was extracted with PureLink RNA extraction kit (ThermoScientific Fisher) and one μg of total RNA was reversely transcribed with VERSO cDNA synthesis kit (ThermoScientific Fisher). Predeveloped qPCR assay primer sets (IDT oligo, listed in key resources table) were used for analyzing the expressions of these genes. The mRNA expression of each gene was evaluated by qPCR and normalized to GAPDH expression (key resources table).

In the case of `CC(C)Cn1cnc2c(N)nc3ccccc3c21` [imiquimod], the “Protection against S. aureus on imiquimod-treated skin” value in the assay on S. aureus (ATCC35556) [1] (Flg^ft/ft mice, 5% imiquimod cream daily for 7 days, S. aureus for 48 hours, Figure S6) is “enhanced protection against S. aureus”.

For the molecule `C=C1/C(=C\C=C2/CCC[C@]3(C)[C@@H]([C@H](C)/C=C/[C@@H](O)C4CC4)CC[C@@H]23)C[C@@H](O)C[C@@H]1O` [MC903], the “S. aureus survival on the skin after MC903 pretreatment relative to untreated mice” value with S. aureus (ATCC35556) [1] (WT Balb/c mice, MC903 50 μL of 90 μM daily for 14 days, S. aureus 1 × 10^6 CFU for 48 h, Figure S1G) was “increased”. In addition, the “AMP response to skin wounding after MC903” value in assay [2] is listed as “suppressed”.

As to “human beta-defensin 3 (GIINTLQKYYCRVRGGRCAVLSCLPKEEQIGKCSTRGRKCCRRKK; ends and bridges not checked; cysteine pairing not given here; UniProt P81534 23-67, looked up) [hBD-3, human β-defensin, synthetic AMP (Peptide International)]”, in the assay on ShA9-WT and ShA9-ΔLanti, the “Sensitivity of ShA9-WT to the AMP compared with ShA9-ΔLanti (growth inhibition)” value was “more sensitive”.

Take `C[C@]12C=CC(=O)C=C1CC[C@H]1[C@@H]3C[C@@H](O)[C@](O)(C(=O)CO)[C@@]3(C)C[C@H](O)[C@@]12F` [triamcinolone]: in the assay with S. aureus (ATCC35556) [3], the “Survival of S. aureus on MC903-pretreated mouse skin” value is reported as “decreased survival of S. aureus”. Further, the “Il17a expression, healthy skin after S. aureus exposure” value in assay [4] (no MC903, Figure 2F) is “decreased”. Further, the “Camp expression, healthy skin after S. aureus exposure” value in assay [4] (no MC903, Figure 2I) is recorded as “decreased”. In addition, in assay [4] (no MC903, Figure 2J), the “Defb14 expression, healthy skin after S. aureus exposure” value is given as “decreased”. For the same molecule, the “Il4 expression, skin with Th2 inflammation (MC903 and S. aureus)” value in assay [4] (Figure 2G) was “decreased”. For the same molecule, the “Il13 expression, skin with Th2 inflammation (MC903 and S. aureus)” value in assay [4] (Figure 2H) is “decreased”. In addition, in assay [4] (Figure 2I), the “Camp expression, skin with Th2 inflammation (MC903 and S. aureus)” value is recorded as “increased”. Besides, in assay [4] (Figure 2J), the “Defb14 expression, skin with Th2 inflammation (MC903 and S. aureus)” value is “increased”. In assay [4] (Figure 2K), the “Defb4 expression, skin with Th2 inflammation (MC903 and S. aureus)” value is “increased”.

With CRAMP (GLL-33), the “Sensitivity of ShA9-WT to the AMP compared with ShA9-ΔLanti (growth inhibition)” value in the assay on ShA9-WT and ShA9-ΔLanti is “more sensitive”.

Turning to human beta-defensin 2 [hBD-2], the “Sensitivity of ShA9-WT to the AMP compared with ShA9-ΔLanti (growth inhibition)” value in the assay with ShA9-WT and ShA9-ΔLanti is “more sensitive”.

B1: ovalbumin (protein, UniProt P01012 2-386, looked up)
Ovalbumin: GSIGAASMEFCFDVFKELKVHHANENIFYCPIAIMSALAMVYLGAKDSTRTQINKVVRFDKLPGFGDSIEAQCGTSVNVHSSLRDILNQITKPNDVYSFSLASRLYAEERYPILPEYLQCVKELYRGGLEPINFQTAADQARELINSWVESQTNGIIRNVLQPSSVDSQTAMVLVNAIVFKGLWEKAFKDEDTQAMPFRVTEQESKPVQMMYQIGLFRVASMASEKMKILELPFASGTMSMLVLLPDEVSGLEQLESIINFEKLTEWTSSNVMEERKIKVYLPRMKMEEKYNLTSVLMAMGITDVFSSSANLSGISSAESLKISQAVHAAHAEINEAGREVVGSAEAGVDAASVSEEFRADHPFLFCIKHIATNAVLFFGRCVSP
notes: ovalbumin used for epicutaneous sensitization to induce Th2 inflammation
For B1, the “S. aureus survival on the skin after OVA sensitization relative to untreated mice” value with S. aureus (ATCC35556) [1] (Flg^ft/ft Balb/c mice, 100 μg OVA in 100 μL PBS, 3 exposure cycles, S. aureus 1 × 10^6 CFU for 48 h, Figure S1M) was “increased colonization by S. aureus”.
